According to PubChem BioAssay AID179 (DTP/NCI, 2004):
Active and inactive are the calls of the source.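 Rule for the calls: active = compounds giving half or more protection of infected cells from virus-caused growth loss, again on retest; inactive = the rest.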

Test system: CEM cells HIV-1 protection, formazan growth assay
Assay: NCI AIDS Antiviral Assay
Conditions: for IC50: measured here: growth of uninfected CEM cells
How it was run: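 Protection of CEM cells against HIV-1 measured as cell growth via soluble formazan read-out, with five concentrations tested on both infected and uninfected cells; failure to protect may reflect toxicity.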

| Compound | outcome | EC50 [µM] | IC50 [µM] |
| --- | --- | --- | --- |
| COC1=CC(=O)c2nc(COC(C)=O)ccc2C1=O | inactive |  |  |
| Cc1ccc(SCC(CF)OC(C)n2cnc3c(=O)[nH]c(N)nc32)cc1 (centres undefined) |  | > 200 | 74.1 |
| C/C(=C1/N=C(c2cc([N+](=O)[O-])ccc2Cl)N(c2ccc(Br)cc2)C1=O)c1ccc(N(CCC#N)CCC#N)cc1C |  | > 11.5 | > 11.5 |
| CO/N=C1/c2sccc2[C@H](NC(=O)C(Cc2ccccc2)NC(=O)OC(C)(C)C)[C@@H]1O (some centres undefined) |  | > 200 | > 200 |
| O=C(O)C(=O)CC(=O)c1ccc(Br)cc1 |  | > 200 |  |
| O=C(CCc1ccccc1)On1c(-c2ccccc2)nc2ccccc2c1=S |  | > 200 | 3.47 |
| CN1c2ccc(Cl)cc2C2(C(=O)NN)C(C(=O)NN)N(C3CCCCC3)C(=O)C12N (centres undefined) |  | > 87.1 | > 87.1 |
| CC(C)c1cccc(C(C)C)c1NC(=O)CCC(=O)NN |  | > 324 | > 324 |
| CC(C)C1CC=CCC12C(=O)NC(=O)NC2=O (centres undefined) |  | > 1050 | 955 |
| COC(=O)/C(Cl)=C1/CC1COCc1ccccc1 (centres undefined) |  | > 186 | 107 |
| Cn1nc(-c2cccc(-c3nn(C)c(=NCCO)s3)n2)sc1=NCCO |  | > 200 | > 200 |
| Cc1ccc(NC(=O)/C(Cc2nc3ccc([N+](=O)[O-])cc3[nH]c2=O)=N\NC(=O)C[n+]2ccccc2)c(C)c1 |  | > 234 | 170 |
| O=C(O)c1nc2cc(Cl)ccc2[nH]c1=O |  | > 200 | > 200 |
| O=C1CCCCC/C1=C\c1ccccc1 |  | > 200 | 52.5 |
| CC(C)(C)OC(=O)NC1CCCCC1NC(=O)C(=O)NC1CCCCC1NC(=O)OC(C)(C)C (centres undefined) |  | > 100 | > 100 |
| N#Cc1ccccc1NC(=O)C(=O)c1c(O)c2ccccc2oc1=O |  | > 741 | > 741 |
| CCOC(=O)C1C(NC(N)=O)N(Cc2ccccc2)C(=O)N1Cc1ccccc1 (centres undefined) |  | > 447 | > 447 |
| N#CCc1nc(-c2cc3ccccc3oc2=O)cs1 |  | > 200 | 38 |
| COc1ccccc1/C=C(\C#N)c1ccccc1 |  | > 22.4 | 11 |
| CCOC(=O)/C(=C/c1ccc(C)cc1)C(=O)c1ccccc1 |  | > 24.5 | 15.1 |
| CCOC(=O)/C=C/c1ccc(F)cc1 |  | > 97.7 | > 97.7 |

| Compound | outcome | EC50 [µM] | IC50 [µM] |
| --- | --- | --- | --- |
| COc1ccc(-c2nc(Sc3c([N+](=O)[O-])ncn3C)n[nH]2)cc1 |  | > 537 | 0.562 |
| CCO/C=C/C(C)C1(C(=O)OCC)CCCCC1=O (centres undefined) |  | > 97.7 | > 97.7 |
| OC[C@H]1N=C(c2cccs2)OC1c1ccccc1 (some centres undefined) |  | > 200 | > 200 |
| CC(O)C(N=Cc1ccccc1[O-])C(=O)[O-].CC(O)C(N=Cc1ccccc1[O-])C(=O)[O-].[Co+2] (centres undefined) |  | > 363 | 64.6 |
| O=c1cc(-c2ccccc2)oc2ccccc12 |  | > 135 | 75.9 |
| O=C(NC1C=Nc2ccc([N+](=O)[O-])cc2NC1=O)c1ccc(Cl)cc1 (centres undefined) |  | > 200 | > 200 |
| CCOC(=O)C(NC(=O)c1cccc(Cl)c1)(N1CCN(c2cc3c(cc2F)c(=O)c(C(=O)O)cn3CC)CC1)C(F)(F)F (centres undefined) |  | > 200 | 0.339 |
| COc1ccc2c(c1)C(=O)C1(C2)[C@H](c2ccccc2)C2C(=O)c3cc(OC)ccc3C2[C@H]1c1ccccc1 (some centres undefined) |  | > 200 | 138 |
| CCCCc1ccc(N2C(=O)c3cc([N+](=O)[O-])cnc3S2(=O)=O)cc1 |  | > 2 | 0.479 |
| CC(=O)Oc1ccc(CCC(=O)O[C@H](C(=O)O)[C@H](OC(=O)CCc2ccc(OC(C)=O)c(OC(C)=O)c2)C(=O)O)cc1OC(C)=O |  | > 53.7 | 30.2 |
| CCOC(=O)c1ccc(N=Nc2ccc(N(CCC#N)CCC#N)cc2C)cc1 |  | > 9.77 | > 9.77 |
| CCOC(=O)CN=C1NNS(=O)(=O)c2ccccc21 |  | > 200 | 110 |
| CC(C)(C)[Si](C)(C)OC[C@H]1O[C@@H](n2ccc(=O)[nH]c2=O)[C@H](O[Si](C)(C)C(C)(C)C)[C@]1(O)[C@H](N=[N+]=[N-])C(N)=O |  | > 200 | 6.03 |
| CC(=O)OCC1OC(SC2=NC(=O)/C(=C/c3ccccc3)S2)C(OC(C)=O)C(OC(C)=O)C1OC(C)=O (centres undefined) |  | > 200 | 32.4 |
| NC1=NS(=O)(=O)Nc2nc(-c3ccccc3)c(-c3ccccc3)nc21 |  | > 355 | 182 |
| O=C(CCN1CCN(c2ccccc2)CC1)N1CCc2c([nH]c3ccccc23)C1c1cccnc1 (centres undefined) |  | > 15.5 | > 15.5 |
| Cc1ccc(S(=O)(=O)NNC2Oc3cc4c(cc3C(c3ccccc3O)C2C)OCO4)cc1 (centres undefined) |  | > 200 | 26.3 |
| O=S(=O)(Nc1nnc2c3ccccc3cnn12)c1ccc(F)cc1S |  | 110 | 468 |
| COc1cc2c(cc1OC)C(CC1=C(c3ccccc3)CN3CCc4cc(OC)c(OC)cc4C3C1)NCC2 (centres undefined) | inactive |  |  |
| c1ccc(N=c2nc(N3CCOCC3)ss2)cc1 | inactive |  |  |
| CCOC(=O)/C(C#N)=C/c1cc2c3c(c1)CCCN3CCC2 |  | > 100 | > 100 |

| Compound | outcome | EC50 [µM] | IC50 [µM] |
| --- | --- | --- | --- |
| Cn1c2c(c3nc(N)nc(N)c3c1=O)CCc1ccccc1-2 |  | > 200 | 12.9 |
| CC(C)CCSSCCC(C)C |  | > 200 | > 200 |
| CSc1nc(NC(=O)c2ccc([N+](=O)[O-])cc2)c(C(=O)NC(C)C)s1 |  | > 200 | 138 |
| CSC1(C)CC2C(CC1N1CCCCC1)C2(C)C (centres undefined) |  | > 93.3 | 44.7 |
| Cc1ccc(N=c2oc3c(ccc4ccccc43)nc2Nc2ccc(C)cc2)cc1 |  | > 200 | > 200 |
| CCC/C(=N/OC(=O)N(C)C)c1ccccc1 |  | > 200 | 135 |
| CC1Nc2ccccc2NC1C=C(C#N)C#N (centres undefined) |  | > 44.7 | 6.76 |
| CSC(SC)=C(C(=O)O)P(=O)(O)O |  | > 200 | > 200 |
| COC(=O)C(=NNc1ccccc1[N+](=O)[O-])C(=O)OC | inactive |  |  |
| Cn1cc(C=O)c2nccnc21 |  | > 1050 | > 1050 |
| Cc1ccc(C2CC(c3ccc([N+](=O)[O-])cc3)=Nc3ccccc3S2)cc1 (centres undefined) |  | > 13.8 | 7.76 |
| CN(C)c1ccc(/C=C(\NC(=O)c2ccccc2)c2nc3ccccc3c(=O)o2)cc1 |  | > 100 | > 100 |
| Sc1nnc(-c2ccccc2Nc2ccccc2-c2nnc(S)n2-c2ccccc2)n1-c1ccccc1 |  | > 87.1 | 25.1 |
| [O-]c1nn(C2OC(CO)C(O)C2O)c2cccc[n+]12 (centres undefined) |  | > 933 | > 933 |
| CCN(CC)CC(=O)Nc1ccc(Cl)cc1Cc1ccccc1 |  | > 200 | 91.2 |
| CCCCc1ccc(Nc2nc(Cl)c3ncn(C4CC(Oc5ccc(C)cc5)C(COc5ccc(C)cc5)O4)c3n2)cc1 (centres undefined) |  | > 200 | > 200 |
| Cc1ccc(C2(C)CCC(C(C)(C)O)OO2)cc1 (centres undefined) | inactive |  |  |
| O=C(O)CCC(=O)c1ccc2c(c1)C(C(=O)O)CC2 (centres undefined) |  | > 200 | > 200 |
| COCn1c(C)c(C)c2c(=O)oc(C)nc21 |  | > 200 | > 200 |
| Cc1cccc(C)c1NC(=O)C(=O)CC(=O)CO |  | > 724 | > 724 |
| O=C1CC(c2ccccc2)NC(=O)N1CCN1CCOCC1 (centres undefined) |  | > 200 | > 200 |

| Compound | outcome | EC50 [µM] | IC50 [µM] |
| --- | --- | --- | --- |
| O=S1(=O)c2ccccc2N(c2ccccc2)c2nnnn21 |  | > 79.4 | 33.1 |
| CC(C(O)c1ccccc1)N(C)/N=N/c1nc2c([nH]1)c(=O)n(C)c(=O)n2C (centres undefined) |  | > 200 | 110 |
| COc1ccc2c(c1)[nH]c(=O)c1c3ccccc3[nH]c21 |  | > 200 | 145 |
| CC(C)(C)[Si](C)(C)Oc1cc(CO)cc2c1cc(=N)o[n+]2[O-] |  | > 200 | 10.2 |
| Cc1ccc(N=C2N=C(N3CC(C)OC(C)C3)c3ccccc32)cc1 (centres undefined) |  | > 107 | 26.3 |
| O=C1C(c2ccccc2)CS(=O)(=O)CC1c1ccccc1 (centres undefined) |  | > 120 | 36.3 |
| CC1(C)S[C@H](CN)N[C@H]1C(=O)OC(c1ccccc1)c1ccccc1 |  | > 200 | 60.3 |
| COC(=O)CNCc1cc(N(C)C)cc(CNCC(=O)OC)n1 |  | > 200 | > 200 |
| Cc1noc(NS(=O)(=O)c2ccc(N=c3c4ccccc4n(C)c4ccccc34)cc2)c1C | inactive |  |  |
| NC(=O)N/N=C1\CCCCc2ccccc21 |  | > 200 | > 200 |
| COC(=O)CN(CC(=O)OC)S(=O)(=O)c1ccc(-c2c3nc(c(-c4ccc(S(=O)(=O)N(CC(=O)OC)CC(=O)OC)cc4)c4ccc([nH]4)c(-c4ccc(S(=O)(=O)N(CC(=O)OC)CC(=O)OC)cc4)c4nc(c(-c5ccc(S(=O)(=O)N(CC(=O)OC)CC(=O)OC)cc5)c5ccc2[nH]5)C=C4)C=C3)cc1 |  | > 100 | > 100 |
| CC(C)N(Cc1ccccc1)S(=O)(=O)c1n[nH]c(C(C)(C)C)n1 |  | > 200 | > 200 |
| Nc1ccc(SSc2ccc(Nc3ccnc4cc(Cl)ccc34)cc2)cc1 |  | > 200 | 5.01 |
| CC(=O)OC12c3ccccc3C(c3ccccc31)C1C(=O)N(c3ccccn3)C(=O)C12 (centres undefined) |  | > 200 | > 200 |
| CCOC(=O)c1c(SCc2cc(=O)[nH]c(=O)[nH]2)n(-c2ccccc2)c(=S)n(-c2ccccc2)c1=O |  | 191 | > 200 |
| COc1cccc(/C(Cl)=C(\C=O)c2cccc(OC)c2)c1 |  | > 17.4 | 9.12 |
| COc1ccc(/C=C(/C#N)c2ccc(Cl)cc2)cc1 |  | > 200 | 3.98 |
| CC(OCc1ccccc1)C(NC(=O)C1CSSCC(NC(=O)C(Cc2ccccc2)NC(=O)OCc2ccccc2)C(=O)NC(Cc2ccccc2)C(=O)NC(Cc2cn(C=O)c3ccccc23)C(=O)NC(CCCCNC(=O)OCc2ccccc2)C(=O)NC(C(C)OCc2ccccc2)C(=O)N1)C(N)=O (centres undefined) |  | > 100 | 4.47 |
| C/C(=N\NC(=O)c1cccc2c(=O)c3ccccc3[nH]c12)C1CC[C@H]2[C@@H]3CCC4=C/C(=N\NC(=O)c5cccc6c(=O)c7ccccc7[nH]c56)CC[C@]4(C)[C@H]3CC[C@]12C (some centres undefined) |  | > 50.1 | > 50.1 |
| COC(=O)C12CC3CC(CC(C(=O)O)(C3)C1)C2 |  | > 759 | > 759 |
